Assay results published in USRE47689E1, “Compounds for treating spinal muscular atrophy” (PTC Therapeutics, Inc., priority 2011, dated 2019).

System: SMA Δ7 homozygous knockout mice
Test: Righting reflex in neonatal Δ7 SMA mice
Assay type: in vivo, mouse
Conditions: IP QD from PND 3 to day 24, then orally BID, compared to vehicle
Procedure: The functional change in righting reflex of neonatal SMA mice is used to determine whether treatment with a test compound improves righting reflex.
Protocol. SMA Δ7 homozygous knockout mice are dosed intraperitoneally (IP) with test compound or vehicle (100% DMSO) once per day (QD) from postnatal day (PND) 3 until the dose regimen is switched to an oral dose twice per day (BID) in 0.5% hydroxypropylmethyl cellulose (HPMC) with 0.1% Tween-80 at a dose 3.16-fold higher than the dose used for IP. The righting reflex time is measured as the time taken by a mouse to flip over onto its feet after being laid on its back. Righting reflex is measured five times for each mouse (allowing a maximal time of 30 sec for each try) with 5 minutes between each measurement. The righting reflex time for SMA Δ7 homozygous knockout mice treated with test compound or vehicle and age-matched heterozygous mice is measured on PND 10, 14 and 18 and plotted.

CC(C)NCCc1ccc2cc(-c3nc4c(Cl)cccc4s3)c(=O)oc2c1 [Cpd 35, 3-(4-chloro-1,3-benzothiazol-2-yl)-7-[2-(propan-2-ylamino)ethyl]-2H-chromen-2-one]
righting reflex: improved compared to vehicle treated mice
